Data from patent publication US6943189B2, “Combination therapy employing ileal bile acid transport inhibiting benzothiepines and HMG CO-A reductase inhibitors” (G.D. Searle & Co., priority 1994, dated 2005).

system: not listed separately; test: Rat Alzet minipump model: fecal weight and fecal bile acid concentration (FBA); format: in vivo; conditions: 20 MPL/DAY, mean (SEM)

SMILES	24 HR. FECAL WT
CCCC[C@]1(CC)CS(=O)(=O)c2cc(OC)ccc2[C@@H](c2ccccc2)[C@H]1O [Example 25, (3a,4b,5b) 3-Butyl-3-ethyl-4-hydroxy-8-methoxy-5-phenyl-2,3,4,5-tetrahydrobenzothiepine-1,1-dioxide]	5.7 (0.4) G

system: not listed separately; test: Cholesterol-fed hamsters: fecal weight and fecal bile acid concentration (FBA); format: in vivo, hamster; conditions: mean (SEM), 4% cholestyramine or 0.2% Cpd. No. 25
Description: Measurement of Fecal Bile Acid Concentration (FBA)
Total fecal output from individually housed hamsters was collected for 24 or 48 hours, dried under a stream of nitrogen, pulverized and weighed. Approximately 0.1 gram was weighed out and extracted into an organic solvent (butanol/water). Following separation and drying, the residue was dissolved in methanol and the amount of bile acid present was measured enzymatically using the 3a-hydroxysteroid steroid dehydrogenase reaction with bile acids to reduce NAD. (Reference: Mashige, F., et al. (1981) Clin. Chem. 27, 1352).

SMILES	24 HR. FECAL Wt (G)
CCCC[C@]1(CC)CS(=O)(=O)c2cc(OC)ccc2[C@@H](c2ccccc2)[C@H]1O [Example 25, (3a,4b,5b) 3-Butyl-3-ethyl-4-hydroxy-8-methoxy-5-phenyl-2,3,4,5-tetrahydrobenzothiepine-1,1-dioxide]	2.4 (0.04) G

target: T1, human IBAT (Homo sapiens, UniProt Q12908); test: In vitro assay of compounds that inhibit IBAT-mediated uptake of [14C]-taurocholate (TC) in H14 cells; format: cell-based; conditions: [14C]-taurocholate uptake, read-out: Human TC IC50
T1 construct: expressed in transfected cells; host or cells: Baby hamster kidney (BHK) cells, clone H14
T1 sequence (Q12908 1-348): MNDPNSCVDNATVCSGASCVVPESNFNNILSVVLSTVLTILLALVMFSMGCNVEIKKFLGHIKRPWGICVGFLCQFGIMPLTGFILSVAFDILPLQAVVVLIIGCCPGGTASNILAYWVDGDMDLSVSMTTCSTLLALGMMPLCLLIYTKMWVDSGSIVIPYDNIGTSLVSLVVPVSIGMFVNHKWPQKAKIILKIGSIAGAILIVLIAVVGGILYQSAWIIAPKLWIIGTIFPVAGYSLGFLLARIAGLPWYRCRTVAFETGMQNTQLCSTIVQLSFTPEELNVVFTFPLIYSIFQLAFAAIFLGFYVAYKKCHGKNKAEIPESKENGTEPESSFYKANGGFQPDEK
Description: In Vitro Assay of Compounds That Inhibit IBAT-Mediated Uptake of [^14C]-Taurocholate (TC) in H14 Cells
Baby hamster kidney cells (BHK) transfected with the cDNA of human IBAT (H14 cells) are seeded at 60,000 cells/well in 96 well Top-Count tissue culture plates for assays run within in 24 hours of seeding, 30,000 cells/well for assays run within 48 hours, and 10,000 cells/well for assays run within 72 hours.
On the day of assay, the cell monolayer is gently washed once with […] assay buffer (Dulbecco's Modified Eaglets medium with 4.5 g/L glucose+0.2% (w/v) fatty acid free bovine serum albumin- (FAF)BSA). To each well 50 ml of a two-fold concentrate of test compound in assay buffer is added along with 50 ml of […] [^14C]-taurocholate in assay buffer (final concentration of […] [^14C]-taurocholate). The cell culture plates are incubated 2 hours at 37° C. prior to gently washing each well twice with […] 4° C. Dulbecco's phosphate-buffered saline (PBS) containing 0.2% (w/v) (FAF)BSA. The wells are then gently washed once with […] 4° C. PBS without (FAF)BSA. To each 200 ml of liquid scintillation counting fluid is added, the plates are heat sealed and shaken for 30 minutes at room temperature prior to measuring the amount of radioactivity in each well on a Packard Top-Count instrument.

SMILES	IC50 [µM]
CCCC[C@]1(CC)CS(=O)(=O)c2cc(OCCOCCOCCOc3ccc4c(c3)S(=O)(=O)C[C@@](CC)(CCCC)[C@H](O)[C@@H]4c3ccccc3)ccc2[C@@H](c2ccccc2)[C@H]1O [Example 135]	22
CCCC[C@@]1(CC)CS(=O)(=O)c2cc(OCCOCCOCCOc3ccc4c(c3)S(=O)(=O)C[C@@](CC)(CCCC)[C@@H](O)[C@H]4c3ccccc3)ccc2[C@@H](c2ccccc2)[C@H]1O [Example 137]	2.4
CCCCC1(CC)CS(=O)(=O)c2ccc(OC)cc2C(c2ccccc2F)C1O (stereo not drawn) [Example 278]	3
CCCCC1(CC)CS(=O)(=O)c2ccc(OC)cc2C(c2cccc(F)c2)C1O (stereo not drawn) [Example 279]	0.4
CCCCC1(CCCC)CS(=O)(=O)c2ccc(NC(=O)OCc3ccccc3)cc2[C@@H](c2ccccc2)[C@H]1O [Example 291]	0.6
CCCCC1(CCCC)CS(=O)(=O)c2ccc(NCc3ccccc3)cc2[C@@H](c2ccccc2)[C@H]1O [Example 293]	1.9
CCCCC1(CC)CS(=O)(=O)c2ccc(N(C)C)cc2C(c2ccc(OCCOCCOCCOc3ccc(C4c5cc(N(C)C)ccc5S(=O)(=O)CC(CC)(CCCC)C4O)cc3)cc2)C1O (stereo not drawn) [Example 1211]	0.28
CCCCC1(CCCC)CS(=O)(=O)c2ccc(NC(C)(C)C)cc2C(c2ccc(F)cc2)C1O (stereo not drawn) [Example 1227]	0.25
CCCCC1(CCCC)CS(=O)(=O)c2ccc(N(C)C)cc2C(c2ccc(OCCOCCOCCOc3ccc(C4c5cc(N(C)C)ccc5S(=O)(=O)CC(CCCC)(CCCC)C4O)cc3)cc2)C1O (stereo not drawn) [Example 1261]	0.019

The remaining lines, values ahead:

IC50 [µM]	SMILES
0.024	CCCCC1(CCCC)CS(=O)(=O)c2ccc(N(C)C)cc2C(c2ccc(OCCCCCCCCCCI)cc2)C1O (stereo not drawn) [Example 1269]
0.024	CCCCC1(CCCC)CS(=O)(=O)c2ccc(N(C)C)cc2C(c2ccc(OCCCCBr)c(F)c2)C1O (stereo not drawn) [Example 1270]
0.012	CCCCC1(CCCC)CS(=O)(=O)c2ccc(N(C)C)cc2C(c2ccc(OCCOCC[S+](CC)CC)c(F)c2)C1O (stereo not drawn) [Example 1299]
0.44	CCCCC1(CCCC)CS(=O)(=O)c2ccc(N(C)C)cc2C(c2ccc(OCCCCCCCCCCOc3ccccc3[N+](C)(C)CC)cc2)C1O (stereo not drawn) [Example 1351]
0.052	CCCCC1(CCCC)CS(=O)(=O)c2ccc(N(C)C)cc2C(c2cccc(OCCOCCOCC[N+](CC)(CCCc3ccccc3)CCCc3ccccc3)c2)C1O (stereo not drawn) [Example 1449]
0.039	CCCCC1(CCCC)CS(=O)(=O)c2ccc(N(C)C)cc2C(c2ccccc2)C1O (stereo not drawn) [Example 1450]
0.014	CCCCC1(CCCC)CS(=O)(=O)c2ccc(N(C)C)cc2C(c2cccc(NCCCS(=O)(=O)O)c2)C1O (stereo not drawn) [Example 1451]

same assay, conditions: [14C]-taurocholate uptake, read-out: IC50 (In vitro Taurocholate Cell Uptake)

IC50 [µM]	SMILES
15	CCCCC1(CC)CS(=O)(=O)c2ccccc2C(=C2CCCCC2)C1O (stereo not drawn) [Example 10b, 3-Butyl-3-ethyl-4-hydroxy-5-cyclohexylidine-2,3,4,5-tetraydrobenzothiepine-1,1-dioxide]

system: uptake of [14C]-alanine in H14 cells; test: In vitro assay of compounds that inhibit uptake of [14C]-alanine (H14 cells); format: cell-based, hamster; conditions: Mesocricetus auratus

SMILES	inhibition at 100 µM [%]
CCCCC1(CC)CS(=O)(=O)c2ccccc2C(=C2CCCCC2)C1O (stereo not drawn) [Example 10b, 3-Butyl-3-ethyl-4-hydroxy-5-cyclohexylidine-2,3,4,5-tetraydrobenzothiepine-1,1-dioxide]	68.6

same assay, conditions: Mesocricetus auratus; @ 1.0 μM; read-out: Alanine Uptake Percent Inhibition @ μM

SMILES	inhibition at 1 µM [%]
CCCC[C@]1(CC)CS(=O)(=O)c2ccc(NC(=O)CCCCCCCCCCC(=O)Nc3ccc4c(c3)[C@@H](c3ccccc3)[C@@H](O)[C@](CC)(CCCC)CS4(=O)=O)cc2[C@@H](c2ccccc2)[C@H]1O [Example 101]	0
